In US8703161B2, “Skin repair compositions comprising circadian gene activators and a synergistic combination of Sirt1 gene activators” (ELC Management, LLC, priority 2007, dated 2014):
Ends that are not written are not given here.

Tested on: UVB-irradiated human keratinocytes
Experiment: Survival of UVB-irradiated keratinocytes, MTS viability (Example 1)
Format: cell-based
Conditions: for decreased survival rate: 45 mJ/cm2 UV
Protocol: Orsirtine™ ((SEQ ID No. 8) G-L-Y-D-N-L-E) and resveratrol, […], were tested for their ability to improve survival of UVB-irradiated human keratinocytes.
Normal human keratinocytes were cultured in Epilife Medium with Human Keratinocyte Growth Supplement. The cells were sub-cultured into 96-well plates (Costar). Keratinocytes were pretreated with resveratrol (25 μM) and Orsirtine (1%, 3%) by themselves, and in a complex of resveratrol (25 μM) and Orsirtine™ (3%). Keratinocytes were treated with the undiluted complex and with dilutions of 1:2, 1:4 and 1:8 (complex: Epilife media).
Keratinocytes were incubated with these treatments overnight at 37° C.; 5% CO2. After 24 hours, the treatment was aspirated and keratinocytes were washed once in D-PBS. 100 μl of D-PBS was added for the irradiation. The cells were subjected to UVB irradiation at 0, 45, 90 and 135 mJ/cm^2 UVB. After the irradiation, D-PBS was removed. Keratinocytes were post treated appropriately and incubated overnight at 37° C.; 5% CO2. The next day, cells were assayed for viability, utilizing MTS reagent (CellTiter96, Promega). Absorbance readings were taken on the SpectraMax190 spectrophotometer (Molecular Devices) at 490 nm following an approximate two hour incubation at 37° C.; 5% CO2.

[1] = Orsirtine 3% alone, listed as Orsirtine ™

Compound	decreased survival rate (just resveratrol (25 μM)) [%]	Increased survival after 90 mJ/cm^2 UV (Resveratrol 25 μM alone) [%]	Increased survival after 135 mJ/cm^2 UV (Resveratrol 25 μM alone) [%]	decreased survivability (UVB of 90 mJ/cm^2, 25 μM Resveratrol by itself) [%]	decreased survival rate (just Orsirtine 3%) [%]	Increased survival after 90 mJ/cm^2 UV (Orsirtine 1% alone) [%]	Increased survival after 135 mJ/cm^2 UV (Orsirtine 1% alone) [%]	Increased survival after 90 mJ/cm^2 UV (Orsirtine 3% alone) [%]	Increased survival after 135 mJ/cm^2 UV (Orsirtine 3% alone) [%]	Increased survival after 90 mJ/cm^2 UV [1] [%]	Increased survival after 135 mJ/cm^2 UV [1] [%]
Oc1ccc(/C=C\c2cc(O)cc(O)c2)cc1 [Resveratrol, 3,5,4′-trihydroxystilbene, reference compound]	20	−15	22	15	–	–	–	–	–	–	–
GLYDNLE [Orsirtine™, peptide G-L-Y-D-N-L-E, INCI Water (and) Glycerin (and) Oryza Sativa (Rice) Extract, from ISP Vincience]	–	–	–	–	8	−17	5	11	26	11	26
